Test results taken from patent US20080152719A1, “Multiparticulate Pharmaceutical Form Comprising Pellets With a Matrix Which Influences the Delivery of a Modulatory Substance” (ROEHM GMBH, priority 2005, published 2008).

Assay: Effect of modulating substances on active ingredient delivery in vitro
Assay type: physicochemical
Conditions: for effect of modulating substance on rate of active ingredient delivery: in the multilayer pharmaceutical form; for activity of modulating substance in purified water versus phosphate buffer pH 6,8: in-vitro, purified water vs phosphate buffer pH 6,8 (Pharm. Eur.)
From the text: In the human and animal gastrointestinal tract the concentration of ions may vary to a certain extent and thus may influence the activity of the modulating substances. For reproducible in-vivo results substances having a modulating effect, which are not or only a little influenced by varying ionic strength are preferred.

| SMILES | effect of modulating substance on rate of active ingredient delivery | activity of modulating substance in purified water versus phosphate buffer pH 6,8 |
| --- | --- | --- |
| CC(=O)[O-].[Na+] [Na acetate] | increase the rate of active ingredient delivery |  |
| O=C([O-])CC(O)(CC(=O)[O-])C(=O)[O-].[Na+].[Na+].[Na+] [Na citrate] | decrease the rate of active ingredient delivery |  |
| O=C(O)CC(O)(CC(=O)O)C(=O)O [citric acid] | increase the rate of active ingredient delivery | almost the same activity |
| [Cl-].[Na+] [sodium chloride] | decrease the rate of active ingredient delivery | almost the same activity |
| O=C([O-])CCC(=O)[O-].[Na+].[Na+] [sodium succinate] | increase the rate of active ingredient delivery | almost the same activity |
